Type in all cases: in vivo
The test system of experiment [1] is ECHCG (Echinochloa crusgalli (L.) Beauv., barnyardgrass). Briefly: In-water applied herbicidal mixtures, transplanted paddy rice, greenhouse (Example II).
The test system of experiment [2] is CIRAR (Cirsium arvense (L.) Scop., Canada thistle). Briefly: Postemergence foliar-applied herbicidal mixtures, cereal crops, greenhouse (Example III). On the procedure:
(§1) Seeds of the desired test plant species were planted in Sun Gro MetroMix® 306 planting mixture, which typically has a pH of 6.0 to 6.8 and an organic matter content of about 30 percent, in plastic pots with a surface area of 103.2 square centimeters (cm^2). […] The plants were grown for 7-36 days in a greenhouse with an approximate 14 hour photoperiod which was maintained at about 18° C. during the day and about 17° C. during the night. Nutrients and water were added on a regular basis and supplemental lighting was provided with overhead metal halide 1000-Watt lamps as necessary. The plants were employed for testing when they reached the second or third true leaf stage.
(§2) Treatments consisted of the benzyl ester of 4-amino-3-chloro-5-fluoro-6-(4-chloro-2-fluoro-3-methoxy-phenyl)pyridine-2-carboxylic acid (Compound A), formulated as an SC, a second cereal herbicide alone and then both in combination.
(§3) Other herbicidal components were applied on an active ingredient basis and included acetolactate synthase (ALS)-inhibiting herbicides (sulfonamide chemical class) florasulam formulated as Derby® and pyroxsulam formulated as PowerFlex®. A measured aliquot of benzyl ester of 4-amino-3-chloro-5-fluoro-6-(4-chloro-2-fluoro-3-methoxy-phenyl)pyridine-2-carboxylic acid (Compound A) was placed in 25 milliliter (mL) glass vials and diluted in a volume of 1.25% (v/v) AgriDex® crop oil concentrated to obtain a stock solution. Compound requirements are based upon a 12 mL application volume at a rate of 187 liters per hectare (L/ha). […] Formulated compounds were applied to the plant material with an overhead Mandel track sprayer equipped with an 8002E nozzle calibrated to deliver 187 L/ha over an application area of 0.503 square meters (m^2) at a spray height of 18 inches (46 cm) above average plant canopy. Control plants were sprayed in the same manner with the solvent blank.
(§4) The treated plants and control plants were placed in a greenhouse as described above and watered by sub-irrigation to prevent wash-off of the test compounds. After 20-22 days, the condition of the test plants as compared with that of the control plants was determined visually and scored on a scale of 0 to 100 percent where 0 corresponds to no injury and 100 corresponds to complete kill.
(§5) Colby's equation was used to determine the herbicidal effects expected from the mixtures (Colby, S. R. 1967. Calculation of the synergistic and antagonistic response of herbicide combinations. Weeds 15:20-22.).
(§6) The following equation was used to calculate the expected activity of mixtures containing two active ingredients, A and B: Expected=A+B−(A×B/100)

Experiment [3] relates to LAMPU (Lamium purpureum (L.), purple deadnettle). The experiment is described as above. To be noted: Compound A Benzyl Ester 8.75 gai/ha, visual score 0 to 100 percent after 20-22 days. On the procedure:
as §1, §2, §3, §4, §5, §6

Experiment [4] has as its system MATCH (Chamomilla chamomilla (L.) Rydb., scented mayweed). Described as above. To be noted: Compound A Benzyl Ester 5 gai/ha, visual score 0 to 100 percent after 20-22 days. As for the experimental part:
as §1, §2, §3, §4, §5, §6

In experiment [5] the test system is SASKR (Salsola iberica (L.), Russian thistle). The description is as above. The conditions noted are these: Compound A Benzyl Ester 5 gai/ha, visual score 0 to 100 percent after 20-22 days. As for the experimental part:
as §1, §2, §3, §4, §5, §6

Experiment [6] has as its system VERPE (Veronica persica Poir., bird's-eye speedwell). Described as above. The conditions noted are these: visual score 0 to 100 percent after 20-22 days. On the procedure: as §1, §2, §3, §4, §5, §6
The subject of experiment [7] is VIOTR (Viola tricolor (L.), wild pansy). Described as above. The conditions noted are these: Compound A Benzyl Ester 5 gai/ha, visual score 0 to 100 percent after 20-22 days. As for the experimental part: as §1, §2, §3, §4, §5, §6

These results are taken from US8906825B2, “Herbicidal compositions comprising 4-amino-3-chloro-5-fluoro-6-(4-chloro-2-fluoro-3-methoxyphenyl) pyridine-2-carboxylic acid or a derivative thereof and triazolopyrimidine sulfonamides” (Dow AgroSciences LLC, priority 2012, dated 2014).

As for `COc1c(Cl)ccc(-c2nc(C(=O)OCc3ccccc3)c(Cl)c(N)c2F)c1F` [Compound A Benzyl Ester, benzyl ester of 4-amino-3-chloro-5-fluoro-6-(4-chloro-2-fluoro-3-methoxy-phenyl)pyridine-2-carboxylic acid], the “Visual Weed Control (%) - 21 DAA ECHCG Obs” value is on record as 20% in experiment [1] (Compound A Benzyl Ester 4.38 gae/ha) and 85% in experiment [1] (Compound A Benzyl Ester 8.75 gae/ha). The “CIRAR Obs” value is recorded as 40% in experiment [2] (Compound A Benzyl Ester 5 gai/ha, visual score 0 to 100 percent after 20-22 days); 40% in experiment [2] (Compound A Benzyl Ester 8.75 gai/ha, visual score after 20-22 days, Table 17); 40% in experiment [2] (Compound A Benzyl Ester 8.75 gai/ha, visual score after 20-22 days, Table 18). In experiment [3], the “LAMPU Obs” value was determined as 83%. Also, the “MATCH Obs” value in experiment [4] was found to be 13%. Besides, the “SASKR Obs” value in experiment [5] was 57%. For the same compound, the “VERPE Obs” value in experiment [6] (Compound A Benzyl Ester 5 gai/ha) is 37%; in experiment [6] (Compound A Benzyl Ester 8.75 gai/ha) it was 50%. Moreover, in experiment [7], the “VIOTR Obs” value was determined as 13%.
